Assay results published in US20200345725A1, “Methods and Compositions for Treating Cancer” (Omeros Corporation, priority 2019, published 2020).
Marks after values point to notes of the source that are not given here.

System: human PBMCs
Test: Th1 cytokines in supernatants of stimulated human PBMC, GPR174 inhibitor with adenosine pathway inhibitors (Examples 15, 18-22)
Type: cell-based
Conditions: donor 7
Procedure, shortened: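 Human donor PBMCs (1×10^6 cells/well) were stimulated with 1 µg/mL anti-CD3 (UCHT1) plus 0.1 µg/mL anti-CD28 (CD28.2) for 24 h with test agents. IFN-γ, IL-2, TNF and GM-CSF in supernatants were measured by ELISA, Legendplex or MSD. Fold changes were compared by one-way ANOVA with Tukey correction.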

[1] = high and low concentrations, ZM 0.1 μM
[2] = no ZM, 0.3 μM (compound 20: 3 μM)
[3] = no ZM, 1 μM (compound 20: 10 μM)
[4] = with ZM-241385 0.1 μM, 0.3 μM (compound 20: 3 μM)
[5] = with ZM-241385 0.1 μM, 1 μM (compound 20: 10 μM), label ZM = ZM alone

O=C(c1ccccc1)N1CCN(c2cc(N3CCCCC3)c(F)cc2[N+](=O)[O-])CC1 [compound 6]
synergy with ZM on GM-CSF (greater than the sum of the increases with each inhibitor alone) [1]: synergized with ZM
synergy with ZM on IFN-γ (greater than the sum of the increases with each inhibitor alone) [1]: synergized with ZM
synergy with ZM on IL-2 (greater than the sum of the increases with each inhibitor alone) [1]: synergized with ZM
synergy with ZM on TNF (greater than the sum of the increases with each inhibitor alone) [1]: synergized with ZM
GM-CSF, ratio relative to vehicle control [2]: 3.9*
IFN-γ, ratio relative to vehicle control [2]: 2.0*
IL-2, ratio relative to vehicle control [2]: 1.5*
TNF, ratio relative to vehicle control [2]: 2.1*
GM-CSF, ratio relative to vehicle control [3]: 2.9*
IFN-γ, ratio relative to vehicle control [3]: 1.9*
IL-2, ratio relative to vehicle control [3]: 1.5*
TNF, ratio relative to vehicle control [3]: 2.1*
GM-CSF, ratio relative to vehicle control [4]: 6.2*
IFN-γ, ratio relative to vehicle control [4]: 3.1*
IL-2, ratio relative to vehicle control [4]: 1.9*
TNF, ratio relative to vehicle control [4]: 3.4*
GM-CSF, ratio relative to vehicle control [5]: 6.0*
IFN-γ, ratio relative to vehicle control [5]: 3.8*
IL-2, ratio relative to vehicle control [5]: 2.1*
TNF, ratio relative to vehicle control [5]: 4.0*
